Test results reported in patent US5190753A, “3-phenyl-5,6-dihydrobenziciacridine-7-carboxylic acids and related compounds as immunosuppressive agents” (Du Pont Merck Pharmaceutical Company, priority 1992, dated 1993).

Assays:
[1] = tested on: human mixed lymphocyte reaction (peripheral blood mononuclear cells, PBMC); test: Human mixed lymphocyte reaction (3H-thymidine incorporation); type: cell-based
Procedure: Blood was obtained by venipuncture from two nonrelated human donors. Peripheral blood mononuclear cells (PBMC) were isolated from these samples by using the Leuco Prep procedure (Becton-Dickinson). PBMC were washed twice in phosphate buffered saline (without calcium and magnesium) and the separate cell isolations were adjusted to the appropriate concentrations in media (RPMI 1640) supplemented with 10% human AB serum and […] gentamicin. Cells from donor A (2×10^5) were incubated with cells from donor B (2×10^5) in 96 well round bottom microliter plates at 37° C., 5% CO2 for 6 days. Eighteen hours prior to harvesting cells from the plates, all wells were pulsed with 1 μCi of ^3 H-thymidine. Cells from the plates were harvested on day-6 and 3H-thymidine incorporation was determined using a scintillation counter.
The human mixed lymphocyte reaction model, is an in vitro model for transplantation rejection.

[2] = tested on: contact sensitivity response to 2,4-dinitrofluorobenzene (DNFB) in Balb/c female mice; test: Contact sensitivity response to DNFB in mice (delayed-type hypersensitivity, ear swelling); type: in vivo
Procedure: Balb/c female mice (.perspectiveto. 20 g; Charles River) were sensitized on the shaved abdomen with 25 μl of 0.5% 2,4-dinitrofluorobenzene (DNFB, Eastman Kodak Co.) in a vehicle of 4:1 acetone:olive oil on days 0 and 1. Mice were ear challenged with 20 μl of 0.2% DNFB in a vehicle of 4:1 acetone:olive oil on day-5. An identical segment of the ear was measured immediately before challenge and 24 hours later with an engineer's micrometer. Ear swelling was expressed as the difference in ear thickness before and after challenge in units of 10^-4 inches ± SEM. Percent suppression was calculated as: [formula] Compounds were administered orally from day-2 through day-6 and were prepared in 0.25% Methocel® (Dow Chemical Co.). Control animals received only vehicle (0.25% Methocel®). Negative controls were not sensitized on days 0 and 1 but were ear challenged on day-5. Ten mice were used per group.
Contact sensitivity to DNFB is a form of delayed-type hypersensitivity which has been extensively studied to gain an understanding of the regulation of immunologic processes (Claman et al. (1980), Immunological Rev. 50:105-132). This reaction is mediated by T lymphocytes that become sensitized to antigen by proliferating and developing into mature effector cells (Claman et al. (1980), Immunological Rev. 50:105-132). This cell-mediated immune response (T-cell mediated immunity) is central to many disease states such as organ transplantation rejection and graft versus host disease (Benacerraf and Unanue (1979), Textbook of Immunology, Williams & Wilkins Co.; Eisen (1980), Immunology, An Introduction to Molecular and Cellular Principles of the Immune Responses, Harper & Row, Inc.; Loveland and McKenzie (1982), Immunology 46:313-320; Gallin et al. (1988), Inflammation, Basic Principles and Clinical Correlates, Raven Press). […]

[3] = clinical use; cited from earlier work

Row | SMILES | IC50 ([1]; Homo sapiens, Lymphocyte, 6 days incubation, 3H-thymidine pulse 18 hours prior to harvest) | human mixed lymphocyte reaction (in words) ([1]; statement in words, compared with CSA) | % Suppression ([2]; 20.0 mg/kg orally, day-2 through day-6, of ear swelling) | Ear Swelling (increase in ear thickness from day 5 to day 6) ([2]; 20.0 mg/kg orally, day-2 through day-6, units ± SEM, ten mice per group, 24 hours after challenge) | immunosuppressive activity (in words) ([2]; statement in words) | Significant clinically observed toxicities [3]
1 | O=C([O-])c1c2c(nc3ccc(F)cc13)-c1ccc(-c3ccccc3)cc1CC2.[Na+] [Example 12, 5,6-dihydro-9-fluoro-3-phenylbenz-[c]acridine-7-carboxylic acid, sodium salt] | 65 nM | comparable to CSA | 99.75% | 2.44 ± 1.62 10^-4 inches | have immunosuppressive activity | 
2 | Cn1cnc([N+](=O)[O-])c1Sc1ncnc2nc[nH]c12 [azathioprine] |  |  |  |  |  | hepatoxicity
